Series [1] deals with pooled human liver microsomes (HLM). Description: Formation kinetics of SRL metabolites by pooled human liver microsomes. The series is classed as in vitro ADME. To be noted: for Vmax: apparent Vmax of formation of the metabolite from sirolimus; for Vmax / Km: Michaelis–Menten fit; for Km: apparent Km of formation of the metabolite from sirolimus; for CLint: apparent intrinsic clearance of formation of the metabolite, CLint = Vmax/Km. The protocol:
(§1) Apparent enzyme kinetic parameters for the major SRL metabolites were assessed. […] Before the addition of the SRL, the NADPH-generating system was preincubated at 37 °C (type C24 incubator shaker, New Brunswick Scientific, Edison, NJ, USA) for 5 min. […] The final volume of the reaction solution was 500 μL, and the reaction was quenched by the addition of a 1:1 volume of ice-cold acetonitrile. Following protein precipitation, samples were briefly vortexed and subsequently centrifuged at 4 °C and 13,000× g for 10 min. The supernatant was transferred to a 2-mL HPLC glass vial and analyzed using high-performance liquid chromatography/tandem mass spectrometry (LC-MS/MS). Representative control incubations without HLMs, without drug, or without the NADPH-generating system (all in quadruplicate) were carried out under the same conditions with every SRL HLM metabolism batch.
(§2) For data analysis, we utilized Sciex Analyst Software (version TF1.7.1) to process and interpret mass spectrometry data. […] Kinetics data was fitted using the GraphPad Prism Enzyme Kinetics Module (Version 10.0.2, for Windows, GraphPad Software, Boston, MA, USA).
(§3) The formation rates of hydroxy SRL and desmethyl SRL were analyzed and fitted using Michaelis–Menten kinetics. This approach enables the determination of kinetic parameters such as Vmax (maximum reaction velocity) and Km (substrate concentration at half-maximal velocity), which provide insight into the enzymatic activity and substrate affinity for these metabolites. […] To compare the formation of the various metabolites and to predict the human hepatic clearance, the apparent intrinsic clearances of the formation of the metabolites (CLint = Vmax/Km) were calculated.
A general note: Microsomes from liver hold many membrane-bound enzymes, among them those of drug oxidation.

For series [2], the system named is phytohemagglutinin-stimulated human lymphocyte proliferation. More on the design: method as in PMID 1352208. The settings on record: percent of the immunosuppressive activity of SRL; cited from earlier work.
Series [3] in a line: Formation kinetics of SRL metabolites by pooled human liver microsomes. The series is classed as in vitro ADME. To be noted: human, pooled human liver microsomes, pH 7.4; sum over metabolite formation, pooled HLM, CLint = Vmax/Km; read-out: total Clint derived from the formation of hydroxylated and demethylated SRL metabolites. The protocol:
as §1, §2, §3

Details of series [4]: method as in doi:10.1016/S0955-470X(10)80014-X, PMID 11165091. To be noted: stability is increased in a mildly acidic environment; cited from earlier work.

Consider 11-Hydroxy sirolimus [11-Hydroxy SRL], for which the Vmax in series [1] (n = 4) amounted to 6.203 pmol/mg protein/min; in series [1] (n = 4, listed as 11-hydroxy SRL), 6.2 pmol/mg protein/min.

For “23/24-Hydroxy sirolimus [23/24-Hydroxy SRL]”, the Vmax in series [1] (n = 4) is given as 2.221 pmol/mg protein/min.

Consider “27-O-Desmethyl sirolimus [27-O-desmethyl SRL]”, for which, in series [1] (n = 4), the Vmax is 0.552 pmol/mg protein/min.

Take `CO[C@H]1C[C@@H]2CC(O)[C@@H](C)[C@@](O)(O2)C(=O)C(=O)N2CCCC[C@H]2C(=O)O[C@H]([C@H](C)C[C@@H]2CC[C@@H](O)[C@H](OC)C2)CC(=O)[C@H](C)/C=C(\C)[C@@H](O)[C@@H](OC)C(=O)[C@H](C)C[C@H](C)/C=C/C=C/C=C/1C` (stereo partly drawn) [12-Hydroxy SRL, 12-Hydroxy sirolimus]: in series [1] (n = 4), the Km amounted to 7.21 µM and the Vmax stood at 4.264 pmol/mg protein/min. Also, the Vmax in series [1] (n = 4, listed as 12-hydroxy SRL) came out at 4.3 pmol/mg protein/min. The CLint in series [1] worked out at 0.6 µL/mg protein/min.

`CO[C@@H]1C[C@H](C[C@@H](C)[C@@H]2CC(=O)[C@H](C)/C=C(\C)[C@@H](O)[C@@H](OC)C(=O)[C@H](C)C[C@H](C)/C=C/C=C/C=C(\C)[C@@H](O)C[C@@H]3CC[C@@H](C)[C@@](O)(O3)C(=O)C(=O)N3CCCC[C@H]3C(=O)O2)CC[C@H]1O` [16-O-desmethyl SRL, 16-O-Desmethyl sirolimus]: in series [1] (n = 4), the Km came to 24.4 µM and the Vmax turned out to be 1.828 pmol/mg protein/min. Further, the CLint in series [1] is 0.08 µL/mg protein/min.

On to `COC1CC2CCC(C)C(O)(O2)C(=O)C(=O)N2CCCCC2C(=O)OC(C(C)CC2CCC(O)C(O)C2)CC(=O)C(C)C=C(C)C(O)C(OC)C(=O)C(C)CC(C)C=CC=CC=C1C` (stereo not drawn) [39-O-desmethyl SRL, 39-O-Desmethyl sirolimus], for which, in series [1] (n = 4), the Km came out at 15 µM and the Vmax is given as 9.6 pmol/mg protein/min. Moreover, in series [1] (n = 4, listed as 39-O-desmthyl SRL), the Vmax is 9.647 pmol/mg protein/min. In series [1], the CLint is on record as 0.65 µL/mg protein/min. For the same molecule, in series [2], the “immunosuppressive activity relative to SRL” value is recorded as 10%.

With `CO[C@H]1C[C@@H]2CC[C@@H](C)[C@@](O)(O2)C(=O)C(=O)N2CCCC[C@H]2C(=O)O[C@H]([C@H](C)C[C@@H]2CC[C@@H](O)[C@H](OC)C2)CC(=O)[C@H](C)/C=C(\C)[C@@H](O)[C@@H](OC)C(=O)[C@H](C)C[C@H](C)/C=C/C=C/C=C/1C` [SRL, Sirolimus], the microsomal CLint in series [3] was 2.35 µL/min/mg. Further, in series [4], the “stability in aqueous solutions” value was “low stability in aqueous solutions”.

One may read the Km as the substrate concentration at which the rate is half of its maximum.

Values taken from paper PMC12299981, “Human Metabolism of Sirolimus Revisited” (Metabolites, 2025).
